Activity calls are given as the source filed them. No cut-off for these calls is given here.
What was measured:
[1] = system: Pseudomonas aeruginosa; experiment: Potentiation of meropenem-induced antibacterial activity against VIM2 carbapenemase producing multidrug-resistant Pseudomonas aeruginosa GR62 clinical isolate assessed as MIC of meropenem at 1:8 meropenem:compound ratio by broth microtiter dilution method; type: functional
[2] = system: Pseudomonas aeruginosa; experiment: Potentiation of meropenem-induced antibacterial activity against VIM2 carbapenemase producing multidrug-resistant Pseudomonas aeruginosa 3 clinical isolate assessed as MIC of meropenem at 1:8 meropenem:compound ratio by broth microtiter dilution method; type: functional
[3] = system: Klebsiella pneumoniae; experiment: Antibacterial activity against VIM4 carbapenemase producing multidrug-resistant Klebsiella pneumoniae 196 clinical isolate up to 512 mg/L by broth microtiter dilution method; type: functional, organism-based
[4] = system: Providencia stuartii; experiment: Potentiation of meropenem-induced antibacterial activity against VIM1 carbapenemase producing multidrug-resistant Providencia stuartii 70 clinical isolate at 1:8 meropenem:compound ratio by checkerboard method; type: functional
[5] = system: Klebsiella pneumoniae; experiment: Potentiation of meropenem-induced antibacterial activity against VIM4 carbapenemase producing multidrug-resistant Klebsiella pneumoniae 120 clinical isolate at 1:8 meropenem:compound ratio by checkerboard method; type: functional
[6] = system: Pseudomonas aeruginosa; experiment: Antibacterial activity against VIM2 carbapenemase producing multidrug-resistant Pseudomonas aeruginosa 27 clinical isolate up to 512 mg/L by broth microtiter dilution method; type: functional, organism-based
[7] = system: Pseudomonas aeruginosa; experiment: Antibacterial activity against VIM2 carbapenemase producing multidrug-resistant Pseudomonas aeruginosa 9 clinical isolate up to 512 mg/L by broth microtiter dilution method; type: functional, organism-based
[8] = system: Pseudomonas aeruginosa; experiment: Antibacterial activity against VIM2 carbapenemase producing multidrug-resistant Pseudomonas aeruginosa 11 clinical isolate up to 512 mg/L by broth microtiter dilution method; type: functional, organism-based
[9] = system: Klebsiella pneumoniae; experiment: Potentiation of meropenem-induced antibacterial activity against VIM4 carbapenemase producing multidrug-resistant Klebsiella pneumoniae 128 clinical isolate at 1:8 meropenem:compound ratio by checkerboard method; type: functional
[10] = system: Klebsiella pneumoniae; experiment: Potentiation of meropenem-induced antibacterial activity against VIM4 carbapenemase producing multidrug-resistant Klebsiella pneumoniae 101 clinical isolate at 1:8 meropenem:compound ratio by checkerboard method; type: functional
[11] = system: Pseudomonas aeruginosa; experiment: Potentiation of meropenem-induced antibacterial activity against VIM2 carbapenemase producing multidrug-resistant Pseudomonas aeruginosa 27 clinical isolate at 1:8 meropenem:compound ratio by checkerboard method; type: functional
[12] = system: Klebsiella pneumoniae; experiment: Antibacterial activity against VIM4 carbapenemase producing multidrug-resistant Klebsiella pneumoniae 128 clinical isolate up to 512 mg/L by broth microtiter dilution method; type: functional, organism-based
[13] = system: Pseudomonas aeruginosa; experiment: Potentiation of meropenem-induced antibacterial activity against VIM2 carbapenemase producing multidrug-resistant Pseudomonas aeruginosa 11 clinical isolate assessed as MIC of meropenem at 1:8 meropenem:compound ratio by broth microtiter dilution method; type: functional
[14] = system: Pseudomonas aeruginosa; experiment: Antibacterial activity against VIM2 carbapenemase producing multidrug-resistant Pseudomonas aeruginosa 3 clinical isolate up to 512 mg/L by broth microtiter dilution method; type: functional, organism-based
[15] = system: Pseudomonas aeruginosa; experiment: Potentiation of meropenem-induced antibacterial activity against VIM2 carbapenemase producing multidrug-resistant Pseudomonas aeruginosa 15 clinical isolate assessed as MIC of meropenem at 1:8 meropenem:compound ratio by broth microtiter dilution method; type: functional
[16] = system: Providencia stuartii; experiment: Potentiation of meropenem-induced antibacterial activity against VIM1 carbapenemase producing multidrug-resistant Providencia stuartii 67 clinical isolate at 1:8 meropenem:compound ratio by checkerboard method; type: functional
[17] = system: Klebsiella pneumoniae; experiment: Potentiation of meropenem-induced antibacterial activity against VIM4 carbapenemase producing multidrug-resistant Klebsiella pneumoniae 196 clinical isolate assessed as MIC of meropenem at 1:8 meropenem:compound ratio by broth microtiter dilution method; type: functional
[18] = system: Pseudomonas aeruginosa; experiment: Antibacterial activity against VIM2 carbapenemase producing multidrug-resistant Pseudomonas aeruginosa 13 clinical isolate up to 512 mg/L by broth microtiter dilution method; type: functional, organism-based
[19] = system: Escherichia coli; experiment: Potentiation of meropenem-induced antibacterial activity against VIM4 carbapenemase producing multidrug-resistant Escherichia coli 98 clinical isolate assessed as MIC of meropenem at 1:8 meropenem:compound ratio by broth microtiter dilution method; type: functional
[20] = system: Pseudomonas aeruginosa; experiment: Potentiation of meropenem-induced antibacterial activity against VIM2 carbapenemase producing multidrug-resistant Pseudomonas aeruginosa 15 clinical isolate at 1:8 meropenem:compound ratio by checkerboard method; type: functional
[21] = system: Klebsiella pneumoniae; experiment: Potentiation of meropenem-induced antibacterial activity against VIM1 carbapenemase producing multidrug-resistant Klebsiella pneumoniae GR54 clinical isolate at 1:8 meropenem:compound ratio by checkerboard method; type: functional
[22] = system: Pseudomonas aeruginosa; experiment: Potentiation of meropenem-induced antibacterial activity against VIM2 carbapenemase producing multidrug-resistant Pseudomonas aeruginosa 8 clinical isolate assessed as MIC of meropenem at 1:8 meropenem:compound ratio by broth microtiter dilution method; type: functional
[23] = system: Pseudomonas aeruginosa; experiment: Potentiation of meropenem-induced antibacterial activity against VIM2 carbapenemase producing multidrug-resistant Pseudomonas aeruginosa GR62 clinical isolate at 1:8 meropenem:compound ratio by checkerboard method; type: functional
[24] = Inhibition of beta-lactamase VIM-2 (unknown origin)
[25] = system: Pseudomonas aeruginosa; experiment: Potentiation of meropenem-induced antibacterial activity against VIM2 carbapenemase producing multidrug-resistant Pseudomonas aeruginosa 30 clinical isolate assessed as MIC of meropenem at 1:8 meropenem:compound ratio by broth microtiter dilution method; type: functional
[26] = system: Pseudomonas aeruginosa; experiment: Potentiation of meropenem-induced antibacterial activity against VIM2 carbapenemase producing multidrug-resistant Pseudomonas aeruginosa GR64 clinical isolate at 1:8 meropenem:compound ratio by checkerboard method; type: functional
[27] = system: Pseudomonas aeruginosa; experiment: Antibacterial activity against VIM2 carbapenemase producing multidrug-resistant Pseudomonas aeruginosa GR57 clinical isolate up to 512 mg/L by broth microtiter dilution method; type: functional, organism-based
[28] = system: Pseudomonas aeruginosa; experiment: Antibacterial activity against VIM2 carbapenemase producing multidrug-resistant Pseudomonas aeruginosa 47 clinical isolate up to 512 mg/L by broth microtiter dilution method; type: functional, organism-based
[29] = system: Providencia stuartii; experiment: Potentiation of meropenem-induced antibacterial activity against VIM1 carbapenemase producing multidrug-resistant Providencia stuartii 70 clinical isolate assessed as MIC of meropenem at 1:8 meropenem:compound ratio by broth microtiter dilution method; type: functional
[30] = system: Pseudomonas aeruginosa; experiment: Antibacterial activity against VIM2 carbapenemase producing multidrug-resistant Pseudomonas aeruginosa 12 clinical isolate up to 512 mg/L by broth microtiter dilution method; type: functional, organism-based
[31] = system: Klebsiella pneumoniae; experiment: Antibacterial activity against VIM1 carbapenemase producing multidrug-resistant Klebsiella pneumoniae 177 clinical isolate up to 512 mg/L by broth microtiter dilution method; type: functional, organism-based

## O=C(O)/C(S)=C/c1c(Cl)ccc(Cl)c1Cl
[1]
  MIC: 8 µg/mL
[2]
  MIC: 8 µg/mL
[3]
  Activity: inactive
[4]
  fractional inhibitory concentration index (FICI): 0.14
[5]
  fractional inhibitory concentration index (FICI): 0.25
[6]
  Activity: inactive
[7]
  Activity: inactive
[8]
  Activity: inactive
[9]
  fractional inhibitory concentration index (FICI): 0.27
[10]
  fractional inhibitory concentration index (FICI): 0.09
[11]
  fractional inhibitory concentration index (FICI): 0.5
[12]
  Activity: inactive
[13]
  MIC: 2 µg/mL
[14]
  Activity: inactive
[15]
  MIC: 16 µg/mL
[16]
  fractional inhibitory concentration index (FICI): 0.14
[17]
  MIC: 1 µg/mL
[18]
  Activity: inactive
[19]
  MIC: 2 µg/mL
[20]
  fractional inhibitory concentration index (FICI): 0.5
[21]
  fractional inhibitory concentration index (FICI): 0.09
[22]
  MIC: 16 µg/mL
[23]
  fractional inhibitory concentration index (FICI): 0.38
[24]
  IC50: 300 nM
[25]
  MIC: 8 µg/mL
[26]
  fractional inhibitory concentration index (FICI): 0.19
[27]
  Activity: inactive
[28]
  Activity: inactive
[29]
  MIC: 1 µg/mL
[30]
  Activity: inactive
[31]
  Activity: inactive

Reference: ChEMBL document CHEMBL3792311, “In vitro and in vivo activity of ML302F: a thioenolate inhibitor of VIM-subfamily metallo -lactamases” (Medchemcomm, 2016)
